For 18 compounds, IC50, Activity and MIC results are on record in ChEMBL document CHEMBL4138236, “Trisubstituted barbiturates and thiobarbiturates: Synthesis and biological evaluation as xanthine oxidase inhibitors, antioxidants, antibacterial and anti-proliferative agents” (Eur J Med Chem, 2018).

Usually IC50 stands for the concentration needed to halve the response being measured. Usually MIC stands for the lowest concentration found to suppress growth. A low value points to a more susceptible organism.

Converted amounts (≈) assume the structure as drawn.

Series [1] concerns MCF7. Briefly: cells. Conditions: Homo sapiens, MCF7, 72 h.
The test system of series [2] is MCF7. The series is described as follows: Antiproliferative activity against human MCF7 cells at 30 uM after 72 hrs by MTT assay relative to control. In kind it is functional. For orientation: Formazan colour is commonly taken as a measure of viable cells.
Series [3] deals with NHDF. Briefly: Antiproliferative activity against NHDF at 30 uM after 72 hrs by MTT assay relative to control. In kind it is cell-based. As to conditions: human.
In series [4] the test system is NHDF. The series is described as follows: Antiproliferative activity against NHDF after 72 hrs by MTT assay. In kind it is cell-based. Conditions: Homo sapiens.
Series [5] in a line: Antioxidant activity assessed as DPPH radical scavenging activity at 30 uM after 20 mins by spectrophotometric method relative to control. In kind it is functional. A general note: Loss of DPPH colour is used to gauge radical scavenging.
The nature of series [6]: Antioxidant activity assessed as DPPH radical scavenging activity at 30 uM after 60 mins by spectrophotometric method relative to control. In kind it is functional.
A short description of series [7]: Antioxidant activity assessed as DPPH radical scavenging activity after 20 mins by spectrophotometric method. In kind it is functional.
Series [8] in a line: Antioxidant activity assessed as DPPH radical scavenging activity after 60 mins by spectrophotometric method. In kind it is functional.
Series [9] concerns Escherichia coli. Briefly: Antibacterial activity against Escherichia coli ATCC 25922 after 24 hrs by broth microdilution method. In kind it is functional. Conditions: ATCC 25922, 24 h. A general note: Broth dilution looks for growth in wells or tubes with falling amounts of substance.
Series [10] relates to Pseudomonas aeruginosa. The series is described as follows: Antibacterial activity against Pseudomonas aeruginosa ATCC 27853 after 24 hrs by broth microdilution method. Conditions: ATCC 27853, 24 h. In kind it is functional.
Series [11] relates to Bacillus cereus. Briefly: Antibacterial activity against Bacillus cereus ATCC 1178 after 24 hrs by broth microdilution method. In kind it is functional. As to conditions: ATCC 1178, 24 h.
Series [12] has as its system Acinetobacter baumannii. The series is described as follows: Antibacterial activity against Acinetobacter baumannii LMG 1025 after 24 hrs by broth microdilution method. In kind it is functional. As to conditions: LMG 1025, 24 h.
Series [13] relates to Staphylococcus aureus. The series is described as follows: Antibacterial activity against Staphylococcus aureus ATCC 25923 after 24 hrs by broth microdilution method. In kind it is functional. As to conditions: ATCC 25923, 24 h.
Series [14] has as its system Salmonella typhimurium. Briefly: Antibacterial activity against Salmonella typhimurium ATCC 13311 after 24 hrs by broth microdilution method. Conditions: Salmonella enterica, ATCC 13311, 24 h. In kind it is functional, Salmonella enterica subsp. enterica serovar Typhimurium.
The test system of series [15] is Klebsiella pneumoniae. Briefly: Antibacterial activity against Klebsiella pneumoniae ATCC 13883 after 24 hrs by broth microdilution method. In kind it is functional. As to conditions: ATCC 13883, 24 h.

Turning to `O=c1[nH]cc(F)c(=O)[nH]1` [FLUOROURACIL], the IC50 in series [1] is 2.35 µM; in [4] it was 7.38 µM. Moreover, the Activity in series [2] came out at 11.88%; in [3], 58.31%.

On to `Cc1c(C)c2c(c(C)c1O)CCC(C)(C(=O)O)O2` (configuration not stated) [TROLOX], for which the Activity in series [5] is 70%; in series [6], 70.3%. Besides, the IC50 in series [7] is 33.8 µM; in series [8], 35.9 µM.

For `CC(NNc1ccccc1)=C1C(=O)NC(=O)NC1=O`, the MIC was more than 200 µM in series [9]; more than 200 µM in series [10]; more than 200 µM in [11]; 25 µM (≈ 6.51 µg/mL) in series [12]; more than 200 µM in series [13]; more than 200 µM in series [14]. Further, the MIC in [15] was more than 200 µM. The Activity was 40.24% in [2], 74.87% in series [3], 77.1% in [5] and 78.1% in [6]. Besides, the results for the half-maximal inhibitory concentration (IC50) in series [7] and in [8] were 23.9 µM and 20.4 µM, respectively.

Turning to `O=C1NC(=S)NC(=O)C1=CNc1ccc([N+](=O)[O-])cc1Cl`, the minimum inhibitory concentration (MIC) in series [9], in series [10], in series [11], in [12], in [13] and in series [14] was more than 200 µM throughout. In series [15], this compound had a minimum inhibitory concentration (MIC) of more than 200 µM. For the same compound, the IC50 in [1] turned out to be 13.2 µM. Moreover, the Activity in [2] was 32.43%; in [3], 76.01%; in [5], 0.91%; in [6], 0.5%.

As for `CC(NNc1ccc([N+](=O)[O-])cc1)=C1C(=O)N(C)C(=O)N(C)C1=O`, the MIC in series [9] is more than 200 µM; in [10] it was more than 200 µM; in [11], more than 200 µM; in series [12], 12.5 µM (≈ 4.17 µg/mL); in series [13], more than 200 µM; in series [14], more than 200 µM. Further, the MIC in series [15] was more than 200 µM. The Activity in series [2] stood at 76.99%; in series [3], 77.63%; in [5], 71.2%; in [6] it was 76%. Besides, the IC50 is 23.9 µM in series [7] and 23.8 µM in series [8].

As for `NC(=S)NC=C1C(=O)N(c2ccccc2)C(=S)N(c2ccccc2)C1=O`, the minimal inhibitory concentration (MIC) in series [9], in series [10], in [11], in [12], in series [13] and in [14] was more than 200 µM in each case. The MIC in series [15] was more than 200 µM. Further, the Activity in [2] was determined as 90.04%; in [3], 95.17%; in [5], 23.1%; in series [6], 32%.

Consider `NC(=S)NC=C1C(=O)NC(=S)NC1=O`, for which the MIC in [9], in series [10], in series [11], in series [12], in [13] and in series [14] was more than 200 µM throughout. Moreover, in series [15], the MIC was more than 200 µM. Also, the Activity in series [2] is 111.15%; in series [3] it was 83.56%; in series [5], 3.37%; in series [6], 4.18%.

Turning to `CC(NNc1ccccc1)=C1C(=O)N(C)C(=O)N(C)C1=O`, the MIC is more than 200 µM in series [9]; more than 200 µM in series [10]; more than 200 µM in series [11]; 25 µM (≈ 7.21 µg/mL) in [12]; more than 200 µM in series [13]; more than 200 µM in series [14]. Moreover, in series [15], the MIC was more than 200 µM. For the same compound, the Activity in series [2] turned out to be 57.38%; in series [3], 65.56%; in series [5], 77.1%; in [6] it was 76.7%. In addition, the IC50 in [7] came to 22.6 µM; in series [8], 18.8 µM; in [4], 82 µM.

With `CC(=O)C1C(=O)N(C)C(=O)N(C)C1=O`, the MIC in series [9], in series [10], in [11], in [12], in [13] and in [14] was more than 200 µM in each case. Besides, the minimum inhibitory concentration (MIC) in [15] was more than 200 µM. Further, the Activity in series [2] is 84.11%; in series [3] it was 94.14%; in series [5] it was -9.14%; in series [6] it was -9.91%.

`NC(S)=NC=C1C(=O)NC(=O)NC1=O`: the MIC in series [9], in [10], in series [11], in series [12], in [13] and in [14] was more than 200 µM throughout. The compound further displayed a minimal inhibitory concentration (MIC) in series [15] of more than 200 µM. The Activity in series [2] was 71.09%; in [3], 78.05%; in [5], 6.73%; in series [6], 16.6%.

In the case of `CN1C(=O)C(=Cc2ccccc2[N+](=O)[O-])C(=O)N(C)C1=O`, the MIC in series [9], in series [10], in series [11], in series [12], in series [13] and in series [14] was more than 200 µM throughout. In series [15], this compound came in with an MIC of more than 200 µM. Also, the Activity was 54.64% in series [2], 79.11% in series [3], -0.8% in [5] and -1.77% in series [6].

`CC(NNc1ccc([N+](=O)[O-])cc1[N+](=O)[O-])=C1C(=O)N(C)C(=O)N(C)C1=O`: the minimal inhibitory concentration (MIC) in series [9], in series [10], in series [11], in [12], in [13] and in series [14] was more than 200 µM each time. The minimum inhibitory concentration (MIC) in [15] is more than 200 µM. Also, the Activity in series [2] amounted to 69.95%; in series [3] it was 73.63%; in series [5], 28%; in series [6] it was 26.7%.

Take `O=C1C(=Cc2ccccc2[N+](=O)[O-])C(=O)N(c2ccccc2)C(=S)N1c1ccccc1`: the minimal inhibitory concentration (MIC) in [9], in [10], in series [11], in series [12], in [13] and in [14] was more than 200 µM throughout. For the same compound, the MIC in [15] was more than 200 µM. Moreover, the Activity in series [2] turned out to be 67.93%; in series [3], 77.56%; in series [5] it was 9%; in [6] it was 11.3%.

For `N#CC(c1ccc(Br)cc1)c1c([O-])[nH]c(=S)[nH]c1=O.[Na+]` (configuration not stated), the MIC in series [9], in [10], in series [11], in series [12], in [13] and in [14] was more than 200 µM throughout. In [15], this compound registered an MIC of more than 200 µM. Besides, the Activity in series [2] was 90.08%; in [3], 89.93%; in [5], -9.22%; in series [6], -8.33%.

Take `CN1C(=O)C(=CNC(N)=O)C(=O)N(C)C1=O`: the minimal inhibitory concentration (MIC) in [9], in series [10], in series [11], in series [12], in series [13] and in series [14] was more than 200 µM in each case. Also, the MIC in [15] was more than 200 µM. Also, the Activity in [2] came to 97.13%; in [3] it was 86.84%; in series [5], 2.1%; in [6] it was 2.91%.

As for `O=C1NC(=S)NC(=O)C1=Cc1ccccc1[N+](=O)[O-]`, the MIC in series [9], in series [10], in [11], in [12], in series [13] and in series [14] was more than 200 µM throughout. Moreover, the minimal inhibitory concentration (MIC) in series [15] was more than 200 µM. For the same compound, the Activity in [2] was 56.35%; in series [3], 81.31%; in [5] it was -2.2%; in series [6], -0.23%.

Consider `O=C1NC(=O)C(=CNc2ccccc2C(=O)O)C(=O)N1`, for which the minimum inhibitory concentration (MIC) in series [9], in [10], in series [11], in [12], in [13] and in series [14] was more than 200 µM throughout. Further, the MIC in [15] is more than 200 µM. Moreover, the Activity was determined as 54.9% in series [2], 84.62% in series [3], 1.75% in series [5] and 1.98% in series [6].

Take `CC(NN)=C1C(=O)N(c2ccccc2)C(=S)N(c2ccccc2)C1=O`: the MIC in series [9], in series [10], in series [11], in series [12], in [13] and in series [14] was more than 200 µM throughout. In series [15], this compound registered an MIC of more than 200 µM. The Activity in [2] worked out at 99.93%; in series [3] it was 86.68%; in series [5], 31.3%; in series [6], 41.9%.
